Tests used:
[1] = system: aged oocytes; experiment: Cell cycle progression (GV, GVBD, PB) of young and aged oocytes after 22 h culture; assay type: cell-based, CBA/Ca mouse; details: 10 μM FF-MAS in Hx-medium, aged (35-38 week old) vs young (5-6 weeks old) oocytes, FIG. 1
Protocol: The CBA/Ca mouse provides a model system for studies on the maternal age effect of oocytes (7). This model is characterised by its relatively limited pool of follicles with low number of aged oocytes in the sexually mature adult female, similar to the human. All the following studies were carried out in the CBA/Ca mice. Animals were kept under controlled lighting and temperature.
Oocytes from young (5-6 weeks old) and aged (35-38 week old) CBA/Ca mice in the diestrus stage of the cycle were investigated. Oocytes were isolated in Hx-medium (see below) under a stereo microscope by manual rupture of the follicles using a pair of 27 gauge needles. […]
(a) By the end of the culture period cell cycle progression was analysed by counting the number of oocytes with germinal vesicle (GV) or germinal vesicle breakdown (GVB) and those with polar body (PB) by using a stereo microscope or an inverted microscope with differential interference contrast equipment. The percentage of oocytes with GV, GVBD and PB per total number of oocytes, respectively, was calculated in the 4 treatment groups of young and aged oocytes, respectively.

[2] = system: oocytes; details: mouse; cited from earlier work
[3] = system: aged metaphase 11 oocytes; experiment: Cytogenetic analysis (chromosome count, hyperploidy) of cultured oocytes; assay type: cell-based, CBA/Ca mouse; details: 10 μM FF-MAS given alone or in combination with Hx, 22 hours culture, FIG. 2
Protocol: The CBA/Ca mouse provides a model system for studies on the maternal age effect of oocytes (7). This model is characterised by its relatively limited pool of follicles with low number of aged oocytes in the sexually mature adult female, similar to the human. All the following studies were carried out in the CBA/Ca mice. Animals were kept under controlled lighting and temperature. Oocytes from young (5-6 weeks old) and aged (35-38 week old) CBA/Ca mice in the diestrus stage of the cycle were investigated. Oocytes were isolated in Hx-medium (see below) under a stereo microscope by manual rupture of the follicles using a pair of 27 gauge needles. Spherical, naked oocytes (NO) displaying an intact germinal vesicle (GV) were placed in a-minimum essential medium (x-MEM without ribonucleosides, Gibco BRL, Cat. No. 22561) supplemented with 3 mM hypoxanthine (Sigma Cat. No. H-9377), 8 mg/ml Human Serum Albumin (HSA, State Serum Institute, Denmark), 0.23 mM pyruvate (Sigma, Cat. No. S-8636), 2 mM glutamine (Flow Cat. No. 16-801), 100 IU/ml penicillin and 100 μg/ml streptomycin (Flow, Cat No. 16-700). This medium was designated Hx-medium. […] The number of chromosomes was counted in each oocyte. […]

[4] = system: mouse cumulus-oocyte complex (COC); details: addition to the culture medium of mouse COC; cited from earlier work
[5] = system: human oocytes; details: concentrations around those observed in vivo, culture medium of human oocytes during IVF; cited from earlier work

## CC(C)=CCC[C@@H](C)[C@H]1CC=C2C3=C(CC[C@@]21C)[C@@]1(C)CC[C@H](O)C(C)(C)[C@@H]1CC3 [FF-MAS, 4,4-dimethyl-5α-cholesta-8,14,24-triene-31-ol]
[1]
  maturation to metaphase 11 (cell cycle progression): more successful to mature to metaphase 11 than young oocytes
[2]
  nuclear (meiotic) and cytoplasmic maturation: induces nuclear (meiotic) and cytoplasmic maturation
[3]
  numerical aberration rate, e.g. hyperploidy: reduces numerical aberration rate

## Cl.Cl.Clc1ccccc1CNCC1CCC(CNCc2ccccc2Cl)CC1 (centres unmarked) [AY9944]
[4]
  accumulation of FF-MAS: has the capacity to induce accumulation of FF-MAS

## EGF: growth factor enhancing endogenous production of MAS in the cumulus enclosed oocyte (NSDSECPLSHDGYCLHDGVCMYIEALDKYACNCVVGYIGERCQYRDLKWWELR; UniProt P01133 971-1023, looked up)
[5]
  implantation rates of the retrieved oocytes: significant improved implantation rates
